In patent US6737383B1, “Herbicidal oxadiazolidines” (priority 1999, dated 2004):

How the values were obtained:
crabgrass = experiment: Test B pre/postemergence crabgrass; type: in vivo, Digitaria sanguinalis
In short: (§1)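 Response is a visual 0-to-10 score relative to untreated plants, where 0 means no effect and 10 means complete control, taken twelve to sixteen days after application. Treatments went onto soil at planting and onto foliage of 1- to 4-leaf plants, using a surfactant-containing non-phytotoxic solvent.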

duck salad = experiment: Test B flood test duck salad; type: in vivo, Heteranthera limosa
In short: (§2)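 Flood test on plants grown to the 2-leaf stage; treated plants kept in greenhouse twelve to sixteen days, then visually rated against controls on a 0 (no effect) to 10 (complete control) scale.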

wild oat = experiment: Test B pre/postemergence wild oat; type: in vivo, Avena fatua
In short: as §1

bamyardgrass = experiment: Test B flood test barnyardgrass; type: in vivo, Echinochloa crus-galli
In short: as §2

surinam grass = experiment: Test B pre/postemergence surinam grass; type: in vivo, Brachiaria decumbens
In short: as §1

corn = experiment: Test B pre/postemergence corn; type: in vivo, Zea mays
In short: as §1

giant foxtail = experiment: Test B pre/postemergence giant foxtail; type: in vivo, Setaria faberii
In short: as §1

bedstraw = experiment: Test B pre/postemergence bedstraw; type: in vivo, Galium aparine; details: Preemergence
In short: as §1

purple nutsedge = experiment: Test B pre/postemergence purple nutsedge; type: in vivo, Cyperus rotundus
In short: as §1

blackgrass = experiment: Test B pre/postemergence blackgrass; type: in vivo, Alopecurus myosuroides
In short: as §1

rape = experiment: Test B pre/postemergence rape; type: in vivo, Brassica napus
In short: as §1

pigweed = experiment: Test B pre/postemergence pigweed; type: in vivo, Amaranthus retroflexus
In short: as §1

soybean = experiment: Test B pre/postemergence soybean; type: in vivo, Glycine max
In short: as §1

rice = experiment: Test B flood test rice; type: in vivo, Oryza sativa
In short: as §2

morningglory = experiment: Test B pre/postemergence morningglory; type: in vivo, Ipomoea hederacea
In short: as §1

cocklebur = experiment: Test B pre/postemergence cocklebur; type: in vivo, Xanthium strumarium
In short: as §1

wheat = experiment: Test B pre/postemergence wheat; type: in vivo, Triticum aestivum
In short: as §1

smallflower flatsedge = experiment: Test B flood test smallflower flatsedge; type: in vivo, Cyperus difformis
In short: as §2

velvetleaf = experiment: Test B pre/postemergence velvetleaf; type: in vivo, Abutilon theophrasti
In short: as §1

sugar beet = experiment: Test B pre/postemergence sugar beet; type: in vivo, Beta vulgaris
In short: as §1

[1] = Postemergence, Rate 62 g/ha, scale of 0 to 10, 0 is no effect, 10 is complete control
[2] = Postemergence, Rate 125 g/ha, scale of 0 to 10 where 0 is no effect and 10 is complete control
[3] = Postemergence, Rate 250 g/ha, scale of 0 to 10, 0 is no effect, 10 is complete control
[4] = Preemergence, Rate 62 g/ha, scale 0 to 10 (0 no effect, 10 complete control)
[5] = Preemergence, Rate 125 g/ha, scale of 0 to 10 where 0 is no effect and 10 is complete control
[6] = Preemergence, Rate 500 g/ha, scale of 0 to 10 where 0 is no effect and 10 is complete control
[7] = Rate 62 g/ha, flood test species, Pre-emergence, visual evaluation after twelve to sixteen days
[8] = Rate 125 g/ha, under heading Pre-emergence, flood test species, visual evaluation after twelve to sixteen days
[9] = Rate 250 g/ha, Pre-emergence (flood test species), scale 0 to 10, 0 is no effect, 10 is complete control
[10] = Rate 500 g/ha, Pre-emergence section of Table B, 0 to 10 scale (0 no effect, 10 complete control)
[11] = Postemergence, Rate 500 g/ha, scale of 0 to 10 where 0 is no effect and 10 is complete control

In the case of `COC(C)n1c(=O)on(C(=O)N(c2ccc(F)cc2F)C(C)C)c1=O` (stereo not drawn) [Compound 593], the “Crabgrass plant response rating” value (crabgrass; [1]) is reported as 0, the “Plant response rating, Crabgrass” value (crabgrass; [2]) is reported as 0 and the “Crabgrass plant response rating” value (crabgrass; [3]) is reported as 0. For the same molecule, the “Crabgrass plant response rating” value (crabgrass; [4]) was 0, the “Crabgrass plant response rating” value (crabgrass; [5]) was 0 and the “Plant response rating, Crabgrass” value (crabgrass; [6]) was 0. The “Plant response rating, Ducksalad (0 to 10 scale, 0 is no effect, 10 is complete control)” value (duck salad; [7]) was 0, the “Ducksalad plant response rating (0 to 10 scale, 0 is no effect, 10 is complete control)” value (duck salad; [8]) was 0 and the “Ducksalad plant response rating” value (duck salad; [9]) was 0. For the same molecule, the “Ducksalad plant response rating” value (duck salad; [10]) was 0, the “Plant response rating, Wild oats” value (wild oat; [2]) was 0 and the “Wild oats plant response rating” value (wild oat; [3]) was 0. For the same molecule, the “Plant response rating, Wild oats” value (wild oat; [11]) was 0, the “Wild oats plant response rating” value (wild oat; [4]) was 0 and the “Wild oats plant response rating” value (wild oat; [5]) was 0. The “Plant response rating, Wild oats” value (wild oat; [6]) was 0, the “Plant response rating, Barnyardgrass (0 to 10 scale, 0 is no effect, 10 is complete control)” value (bamyardgrass; [7]) was 0 and the “Barnyardgrass plant response rating (0 to 10 scale, 0 is no effect, 10 is complete control)” value (bamyardgrass; [8]) was 0. The “Barnyardgrass plant response rating” value (bamyardgrass; [9]) was 0, the “Barnyardgrass plant response rating” value (bamyardgrass; [10]) was 0 and the “B. signalgrass plant response rating” value (surinam grass; [1]) was 0. The “Plant response rating, B. signalgrass” value (surinam grass; [2]) was 0, the “B. signalgrass plant response rating” value (surinam grass; [3]) was 0 and the “Plant response rating, B. signalgrass” value (surinam grass; [11]) was 0. The “B. signalgrass plant response rating” value (surinam grass; [4]) was 0, the “B. signalgrass plant response rating” value (surinam grass; [5]) was 0 and the “B. signalgrass plant response rating (0 to 10 scale, 0 is no effect, 10 is complete control)” value (surinam grass; Preemergence, Rate 250 g/ha) was 0. For the same molecule, the “B. signalgrass plant response rating” value (surinam grass; [6]) was 0, the “Corn plant response rating” value (corn; [1]) was 0 and the “Plant response rating, Corn” value (corn; [2]) was 0. For the same molecule, the “Corn plant response rating” value (corn; [3]) was 0, the “Plant response rating, Corn” value (corn; [11]) was 0 and the “Corn plant response rating” value (corn; [4]) was 0. For the same molecule, the “Corn plant response rating” value (corn; [5]) was 0, the “Corn plant response rating (0 to 10 scale)” value (corn; Preemergence, Rate 250 g/ha) was 0 and the “Plant response rating, Corn” value (corn; [6]) was 0. The “Giant foxtail plant response rating” value (giant foxtail; [1]) was 0, the “Plant response rating, Giant foxtail” value (giant foxtail; [2]) was 0 and the “Giant foxtail plant response rating” value (giant foxtail; [3]) was 0. The “Plant response rating, Giant foxtail” value (giant foxtail; [11]) was 0, the “Giant foxtail plant response rating” value (giant foxtail; [4]) was 0 and the “Giant foxtail plant response rating” value (giant foxtail; [5]) was 0. The “Plant response rating, Giant foxtail” value (giant foxtail; [6]) was 0, the “Bedstraw plant response rating” value (bedstraw; Rate 62 g/ha, scale 0 to 10 (0 no effect, 10 complete control)) was 0 and the “Bedstraw plant response rating (0 to 10 scale)” value (bedstraw; Rate 250 g/ha) was 0. The “Nutsedge plant response rating” value (purple nutsedge; [1]) was 0, the “Plant response rating, Nutsedge” value (purple nutsedge; [2]) was 0 and the “Nutsedge plant response rating” value (purple nutsedge; [3]) was 0. For the same molecule, the “Plant response rating, Nutsedge” value (purple nutsedge; [11]) was 0, the “Nutsedge plant response rating” value (purple nutsedge; [4]) was 0 and the “Nutsedge plant response rating” value (purple nutsedge; [5]) was 0. The “Plant response rating, Nutsedge” value (purple nutsedge; [6]) was 2, the “Blackgrass plant response rating” value (blackgrass; [1]) was 0 and the “Plant response rating, Blackgrass” value (blackgrass; [2]) was 0. For the same molecule, the “Blackgrass plant response rating” value (blackgrass; [3]) was 0, the “Plant response rating, Blackgrass” value (blackgrass; [11]) was 0 and the “Blackgrass plant response rating” value (blackgrass; [4]) was 0. For the same molecule, the “Blackgrass plant response rating” value (blackgrass; [5]) was 0, the “Blackgrass plant response rating (0 to 10 scale)” value (blackgrass; Preemergence, Rate 250 g/ha) was 0 and the “Blackgrass plant response rating” value (blackgrass; [6]) was 0. For the same molecule, the “Rape plant response rating” value (rape; [1]) was 0, the “Plant response rating, Rape” value (rape; [2]) was 0 and the “Rape plant response rating” value (rape; [3]) was 0. For the same molecule, the “Plant response rating, Rape” value (rape; [11]) was 0, the “Rape plant response rating” value (rape; [4]) was 0 and the “Rape plant response rating” value (rape; [5]) was 0. The “Plant response rating, Rape” value (rape; [6]) was 0, the “Plant response rating, Redroot pigweed” value (pigweed; [2]) was 0 and the “Redroot pigweed plant response rating” value (pigweed; [3]) was 0. For the same molecule, the “Plant response rating, Redroot pigweed” value (pigweed; [11]) was 0, the “Redroot pigweed plant response rating” value (pigweed; [4]) was 0 and the “Redroot pigweed plant response rating” value (pigweed; [5]) was 0. For the same molecule, the “Plant response rating, Redroot pigweed” value (pigweed; [6]) was 0, the “Plant response rating, Soybean” value (soybean; [2]) was 0 and the “Soybean plant response rating” value (soybean; [3]) was 0. For the same molecule, the “Plant response rating, Soybean” value (soybean; [11]) was 1, the “Soybean plant response rating” value (soybean; [4]) was 0 and the “Soybean plant response rating” value (soybean; [5]) was 0. For the same molecule, the “Plant response rating, Soybean” value (soybean; [6]) was 0, the “Plant response rating, Rice (0 to 10 scale, 0 is no effect, 10 is complete control)” value (rice; [7]) was 0 and the “Rice plant response rating (0 to 10 scale, 0 is no effect, 10 is complete control)” value (rice; [8]) was 0. For the same molecule, the “Rice plant response rating” value (rice; [9]) was 0, the “Rice plant response rating” value (rice; [10]) was 0 and the “Morningglory plant response rating” value (morningglory; [1]) was 0. For the same molecule, the “Plant response rating, Morningglory” value (morningglory; [2]) was 0, the “Morningglory plant response rating” value (morningglory; [3]) was 0 and the “Plant response rating, Morningglory” value (morningglory; [11]) was 2. The “Morningglory plant response rating” value (morningglory; [4]) was 0, the “Morningglory plant response rating” value (morningglory; [5]) was 0 and the “Plant response rating, Morningglory” value (morningglory; [6]) was 0. For the same molecule, the “Cocklebur plant response rating” value (cocklebur; [1]) was 0, the “Plant response rating, Cocklebur” value (cocklebur; [2]) was 0 and the “Cocklebur plant response rating” value (cocklebur; [3]) was 0. The “Plant response rating, Cocklebur” value (cocklebur; [11]) was 0, the “Cocklebur plant response rating” value (cocklebur; [4]) was 0 and the “Cocklebur plant response rating” value (cocklebur; [5]) was 0. For the same molecule, the “Cocklebur plant response rating (0 to 10 scale)” value (cocklebur; Preemergence, Rate 250 g/ha) was 0, the “Plant response rating, Cocklebur” value (cocklebur; [6]) was 0 and the “Plant response rating, Wheat” value (wheat; [2]) was 0. The “Wheat plant response rating” value (wheat; [3]) was 0, the “Plant response rating, Wheat” value (wheat; [11]) was 0 and the “Wheat plant response rating” value (wheat; [4]) was 0. For the same molecule, the “Wheat plant response rating” value (wheat; [5]) was 0, the “Plant response rating, Wheat” value (wheat; [6]) was 0 and the “Plant response rating, S. Flatsedge (0 to 10 scale, 0 is no effect, 10 is complete control)” value (smallflower flatsedge; [7]) was 0. The “S. Flatsedge plant response rating (0 to 10 scale, 0 is no effect, 10 is complete control)” value (smallflower flatsedge; [8]) was 0, the “S. Flatsedge plant response rating” value (smallflower flatsedge; [9]) was 0 and the “S. Flatsedge plant response rating” value (smallflower flatsedge; [10]) was 0. The “Plant response rating, Velvetleaf” value (velvetleaf; [2]) was 0, the “Velvetleaf plant response rating” value (velvetleaf; [3]) was 0 and the “Plant response rating, Velvetleaf” value (velvetleaf; [11]) was 0. For the same molecule, the “Velvetleaf plant response rating” value (velvetleaf; [4]) was 0, the “Velvetleaf plant response rating” value (velvetleaf; [5]) was 0 and the “Plant response rating, Velvetleaf” value (velvetleaf; [6]) was 0. The “Plant response rating, Sugarbeets” value (sugar beet; [2]) was 0, the “Sugarbeets plant response rating” value (sugar beet; [3]) was 0 and the “Plant response rating, Sugarbeets” value (sugar beet; [11]) was 0. For the same molecule, the “Sugarbeets plant response rating” value (sugar beet; [4]) was 0, the “Sugarbeets plant response rating” value (sugar beet; [5]) was 0 and the “Plant response rating, Sugarbeets” value (sugar beet; [6]) was 0.
